# Laboratory results: patent US10047086B2, “Imidazopyridines and imidazopyrazines as LSD1 inhibitors” (Incyte Corporation, priority 2014, dated 2018)
# Target: LSD-1 enzyme (Homo sapiens (Human), UniProt O60341)
# Test: LANCE LSD1/KDM1A demethylase assay (LSD1 histone demethylase biochemical assay)
# Details: 1 nM LSD-1 enzyme, 1 hour preincubation at 25° C., 0.4 μM Biotin-labeled Histone H3 peptide substrate
row,Compound,IC50
1,"CN1C(=O)OCc2cc(-c3c(-c4ccc(C#N)cc4)nc(N4CCC(N(C)C)CC4)c4cncn34)ccc21 [Example 106, 4-[8-[4-(dimethylamino)piperidin-1-yl]-5-(1-methyl-2-oxo-1,4-dihydro-2H-3,1-benzoxazin-6-yl)imidazo[1,5-a]pyrazin-6-yl]benzonitrile]",≤ 0.05 µM
2,"CN(C)C1CCN(c2nc(-c3ccc(C#N)cc3)c(-c3cnc4c(c3)ncn4C)n3cncc23)CC1 [Example 107, 4-[8-[4-(dimethylamino)piperidin-1-yl]-5-(3-methyl-3H-imidazo[4,5-b]pyridin-6-yl)imidazo[1,5-a]pyrazin-6-yl]benzonitrile]",≤ 0.05 µM
3,"CCn1c(=O)oc2cc(-c3c(-c4ccc(C#N)cc4)nc(N4CCC(N(C)C)CC4)c4cncn34)ccc21 [Example 108, 4-[8-[4-(dimethylamino)piperidin-1-yl]-5-(3-ethyl-2-oxo-2,3-dihydro-1,3-benzoxazol-6-yl)imidazo[1,5-a]pyrazin-6-yl]benzonitrile]",≤ 0.05 µM
4,"CN(C)C1CCN(c2nc(-c3ccc(C#N)cc3)c(-c3ccc4c(c3F)n(C)c(=O)n4C)n3cncc23)CC1 [Example 109, 4-[8-[4-(dimethylamino)piperidin-1-yl]-5-(4-fluoro-1,3-dimethyl-2-oxo-2,3-dihydro-1H-benzimidazol-5-yl)imidazo[1,5-a]pyrazin-6-yl]benzonitrile]",≤ 0.05 µM
5,"CCN1CCC[C@@H](COc2nc(-c3ccc(C#N)cc3)c(-c3cc4oc(=O)n(C)c4cc3F)n3cncc23)C1 [Example 111, 4-[8-{[(3R)-1-ethylpiperidin-3-yl]methoxy}-5-(5-fluoro-3-methyl-2-oxo-2,3-dihydro-1,3-benzoxazol-6-yl)imidazo[1,5-a]pyrazin-6-yl]benzonitrile]",≤ 0.05 µM
6,"CN(C)[C@H]1CCN(c2nc(-c3ccc(C#N)cc3)c(-c3cc4oc(=O)n(C)c4cc3F)n3cncc23)C1 [Example 113, 4-[8-[(3S)-3-(dimethylamino)pyrrolidin-1-yl]-5-(5-fluoro-3-methyl-2-oxo-2,3-dihydro-1,3-benzoxazol-6-yl)imidazo[1,5-a]pyrazin-6-yl]benzonitrile]",≤ 0.05 µM
7,"CCN1CCC[C@@H](COc2cc(-c3ccc(C#N)cc3)c(-c3ccc4c(c3)CC(=O)N4C)n3cncc23)C1 [Example 114, (R)-4-(8-((1-ethylpiperidin-3-yl)methoxy)-5-(1-methyl-2-oxoindolin-5-yl)imidazo[1,5-a]pyridin-6-yl)benzonitrile]",≤ 0.05 µM
8,"COCCN1CCC[C@@H](COc2cc(-c3ccc(C#N)cc3)c(-c3cnc4c(c3)OCCO4)n3cncc23)C1 [Example 115, (R)-4-(5-(2,3-dihydro-[1,4]dioxino[2,3-b]pyridin-7-yl)-8-((1-(2-methoxyethyl)piperidin-3-yl)methoxy)imidazo[1,5-a]pyridin-6-yl)benzonitrile]",≤ 0.05 µM
9,"CN1CCC[C@@H](COc2cc(-c3ccc(C#N)cc3)c(-c3cnc4c(c3)OCCN4C)n3cncc23)C1 [Example 116, (R)-4-(5-(4-methyl-3,4-dihydro-2H-pyrido[3,2-b][1,4]oxazin-7-yl)-8-((1-methylpiperidin-3-yl)methoxy)imidazo[1,5-a]pyridin-6-yl)benzonitrile]",≤ 0.05 µM
10,"CC(O)CN1CCC[C@@H](COc2cc(-c3ccc(C#N)cc3)c(-c3ccc4nccnc4c3)n3cncc23)C1 (stereo partly drawn) [Example 120, 4-(8-(((3R)-1-(2-hydroxypropyl)piperidin-3-yl)methoxy)-5-(quinoxalin-6-yl)imidazo[1,5-a]pyridin-6-yl)benzonitrile]",≤ 0.05 µM
11,"COCCN1CCC[C@@H](COc2cc(-c3ccc(C#N)cc3)c(-c3cnc4ccoc4c3)n3cncc23)C1 [Example 121, 4-(5-furo[3,2-b]pyridin-6-yl-8-{[(3R)-1-(2-methoxyethyl)piperidin-3-yl]methoxy}imidazo[1,5-a]pyridin-6-yl)benzonitrile]",≤ 0.05 µM
12,"COCCN1CCC[C@@H](COc2cc(-c3ccc(C#N)cc3)c(-c3cnc4c(c3)CCCO4)n3cncc23)C1 [Example 122, (R)-4-(5-(3,4-dihydro-2H-pyrano[2,3-b]pyridin-6-yl)-8-((1-(2-methoxyethyl)piperidin-3-yl)methoxy)imidazo[1,5-a]pyridin-6-yl)benzonitrile]",≤ 0.05 µM
13,"CC(O)c1ccc(-c2c(-c3ccc(C#N)cc3)cc(OC[C@@H]3CCCN(C)C3)c3cncn23)cc1 (stereo partly drawn) [Example 123, 4-(5-[4-(1-hydroxyethyl)phenyl]-8-{[(3R)-1-methylpiperidin-3-yl]methoxy}imidazo[1,5-a]pyridin-6-yl)benzonitrile]",≤ 0.05 µM
14,"Cc1ccc(-c2c(-c3ccc(C#N)cc3)cc(OC[C@@H]3CCCN(C)C3)c3cncn23)cn1 [Example 125, 4-[8-{[(3R)-1-methylpiperidin-3-yl]methoxy}-5-(6-methylpyridin-3-yl)imidazo[1,5-a]pyridin-6-yl]benzonitrile]",≤ 0.05 µM
15,"Cc1cc(-c2c(-c3ccc(C#N)cc3)cc(OC[C@@H]3CCCN(C)C3)c3cncn23)cc(F)c1C(C)O (stereo partly drawn) [Example 126, 4-(5-[3-fluoro-4-(1-hydroxyethyl)-5-methylphenyl]-8-{[(3R)-1-methylpiperidin-3-yl]methoxy}imidazo[1,5-a]pyridin-6-yl)benzonitrile]",≤ 0.05 µM
16,"Cc1ncc(-c2c(-c3ccc(C#N)cc3)cc(OC[C@@H]3CCCN(C)C3)c3cncn23)cc1F [Example 127, 4-(5-(5-fluoro-6-methylpyridin-3-yl)-8-{[(3R)-1-methylpiperidin-3-yl]methoxy}imidazo[1,5-a]pyridin-6-yl)benzonitrile]",≤ 0.05 µM
17,"CCN1CCC[C@@H](COc2cc(-c3ccc(C#N)cc3)c(-c3cc(C)c(CO)c(F)c3)n3cncc23)C1 [Example 128, 4-{8-{[(3R)-1-ethylpiperidin-3-yl]methoxy}-5-[3-fluoro-4-(hydroxymethyl)-5-methylphenyl]imidazo[1,5-a]pyridin-6-yl}benzonitrile]",≤ 0.05 µM
18,"COCCN1CCC[C@@H](COc2cc(-c3ccc(C#N)cc3)c(-c3cc(C)c(CO)c(F)c3)n3cncc23)C1 [Example 129, 4-(5-[3-fluoro-4-(hydroxymethyl)-5-methylphenyl]-8-{[(3R)-1-(2-methoxyethyl)piperidin-3-yl]methoxy}imidazo[1,5-a]pyridin-6-yl)benzonitrile]",≤ 0.05 µM
19,"COCCN1CCC[C@@H](COc2cc(-c3ccc(C#N)cc3)c(-c3cnc(C)c(C)c3)n3cncc23)C1 [Example 130, 4-(5-(5,6-dimethylpyridin-3-yl)-8-{[(3R)-1-(2-methoxyethyl)piperidin-3-yl]methoxy}imidazo[1,5-a]pyridin-6-yl)benzonitrile]",≤ 0.05 µM
20,"CCN1CCC[C@@H](COc2cc(-c3ccc(C#N)cc3)c(-c3cnc(C)c(C)c3)n3cncc23)C1 [Example 131, 4-(5-(5,6-dimethylpyridin-3-yl)-8-{[(3R)-1-ethylpiperidin-3-yl]methoxy}imidazo[1,5-a]pyridin-6-yl)benzonitrile]",≤ 0.05 µM
21,"CN1CCC[C@@H](COc2cc(-c3ccc(C#N)cc3)c(-c3cnn(C4CCC4)c3)n3cncc23)C1 [Example 134, 4-(5-(1-cyclobutyl-1H-pyrazol-4-yl)-8-{[(3R)-1-methylpiperidin-3-yl]methoxy}imidazo[1,5-a]pyridin-6-yl)benzonitrile]",≤ 0.05 µM
22,"CN1C(=O)CCc2cc(-c3c(-c4ccc(C#N)cc4)nc(N4CCC(N(C)C)CC4)c4cncn34)ccc21 [Example 137, 4-[8-[4-(dimethylamino)piperidin-1-yl]-5-(1-methyl-2-oxo-1,2,3,4-tetrahydroquinolin-6-yl)imidazo[1,5-a]pyrazin-6-yl]benzonitrile]",≤ 0.05 µM
23,"CN(C)C1CCN(c2nc(-c3ccc(C#N)cc3)c(-c3cc(F)c4c(c3)n(C)c(=O)n4C)n3cncc23)CC1 [Example 138, 4-(8-(4-(dimethylamino)piperidin-1-yl)-5-(7-fluoro-1,3-dimethyl-2-oxo-2,3-dihydro-1H-benzo[d]imidazol-5-yl)imidazo[1,5-a]pyrazin-6-yl)benzonitrile]",≤ 0.05 µM
24,"CN(C)C1CCN(c2nc(-c3ccc(C#N)cc3)c(-c3cnn(C4CCC4)c3)n3cncc23)CC1 [Example 139, 4-{5-(1-cyclobutyl-1H-pyrazol-4-yl)-8-[4-(dimethylamino)piperidin-1-yl]imidazo[1,5-a]pyrazin-6-yl}benzonitrile]",≤ 0.05 µM
25,"Cc1ncc(-c2c(-c3ccc(C#N)cc3)nc(N3CCC(N(C)C)CC3)c3cncn23)cc1CO [Example 142, 4-{8-[4-(dimethylamino)piperidin-1-yl]-5-[5-(hydroxymethyl)-6-methylpyridin-3-yl]imidazo[1,5-a]pyrazin-6-yl}benzonitrile]",≤ 0.05 µM
26,"CN(C)C1CCN(c2nc(-c3ccc(C#N)cc3)c(-c3ccc4c(c3)nc(C(F)F)n4C)n3cncc23)CC1 [Example 143, 4-{5-[2-(difluoromethyl)-1-methyl-1H-benzimidazol-5-yl]-8-[4-(dimethylamino)piperidin-1-yl]imidazo[1,5-a]pyrazin-6-yl}benzonitrile]",≤ 0.05 µM
27,"CN(C)C1CCN(c2nc(-c3ccc(C#N)cc3)c(-c3cnc4ccccc4c3)n3cncc23)CC1 [Example 144, 4-{8-[4-(dimethylamino)piperidin-1-yl]-5-quinolin-3-ylimidazo[1,5-a]pyrazin-6-yl}benzonitrile]",≤ 0.05 µM
28,"CN(C)C1CCN(c2nc(-c3ccc(C#N)cc3)c(-c3ccc4ncccc4c3)n3cncc23)CC1 [Example 145, 4-{8-[4-(dimethylamino)piperidin-1-yl]-5-quinolin-6-ylimidazo[1,5-a]pyrazin-6-yl}benzonitrile]",≤ 0.05 µM
29,"COc1ncc(-c2c(-c3ccc(C#N)cc3)nc(N3CCC(N(C)C)CC3)c3cncn23)cc1C#N [Example 148, 5-{6-(4-cyanophenyl)-8-[4-(dimethylamino)piperidin-1-yl]imidazo[1,5-a]pyrazin-5-yl}-2-methoxynicotinonitrile]",≤ 0.05 µM
30,"Cc1cc(-c2c(-c3ccc(C#N)cc3)nc(N3CCC(N(C)C)CC3)c3cncn23)ccc1CO [Example 149, 4-{8-[4-(dimethylamino)piperidin-1-yl]-5-[4-(hydroxymethyl)-3-methylphenyl]imidazo[1,5-a]pyrazin-6-yl}benzonitrile]",≤ 0.05 µM
